Like-named read-outs stand apart in the source and are kept apart here.
Assays:
[1] = Static (DC) electric field induced nucleation of aged supersaturated aqueous solutions; polymorph by x-ray powder diffraction; assay type: physicochemical; settings: for timescale on which macroscopic crystals form: supersaturated aqueous solution subjected to static electric field; for percent of the exposed solutions that nucleated within the 10-minute exposure time: 6×10^5 V/m DC field, γ glycine
Description: Great care was taken to exclude dust from samples. Supersaturated solutions were generated by heating the tubes to 62-64° C. and holding them at that temperature in an ultrasonicator overnight.
A chamber was constructed consisting of two brass electrodes separated by a 5 mm insulating gap, with a hole drilled down through the center, parallel to the gap-electrode interface, with a diameter large enough to accommodate the test tube, to create a high voltage chamber. Test tubes containing the aged solutions were placed in the high voltage chamber.
A DC voltage was applied across the electrodes, large enough to produce electric fields in the range of 400,000 to 800,000 V/m. Tests tubes containing the aged solutions were placed in the high-voltage chamber. […] If crystals formed in the test tubes, the crystals were removed from the solution and dried. The structure of these crystals was analyzed by grinding up the crystal into a powder and obtaining an x-ray powder diffraction pattern.
(§1) The supersaturated solutions were in the concentration range of 5.5 to 6.0 molal. […] These solutions had supersaturations (SS) ranging from 1.85 to 2.0; SS=c/csat, where csat is the saturation concentration.
Solutions were aged for 2 to 5 weeks and exposed to a 6×10^5 V/m DC field for 10 minutes. Semi-cylindrical electrodes were constructed from a 5 cm×5 cm×5.5 cm block of brass, with the center drilled out so that the sample tubes would fit snugly, and then split in half and material removed to create a 5 mm gap, as shown in FIG. 1. […] All sharp edges were rounded in the actual electrodes. The electrodes are insulated and held firmly in position by Delrin plates, screwed together to make a covered box, with 5 mm thick spacers to hold the cylindrical electrodes at the proper spacing. There are two long narrow gaps in the insulation, matching the electrode gap 20, so that most of the length of the sample tube is visible from either side, and there is a small hole in the bottom insulating plate, with a mount for an optical fiber. A Glassman EH regulated power supply provided 0-15 kV DC.
A low power monitoring continuous-wave laser beam at a wavelength of 532 nm, defocused in one direction with a cylindrical lens to generate a pencil-shaped beam, was directed through the electrode gap 20 and illuminated the length of the sample tube. The transmitted light was imaged on white paper. Light scattered perpendicular to the beam was collected with an optical fiber attached at the bottom of the cell and monitored with a power meter.
(§2) Crystals formed in the test tubes were removed from the solution and dried. The structure of these crystals was analyzed by grinding up the crystal into a powder and obtaining an x-ray powder diffraction pattern.

[2] = average charge on a glycine molecule is zero; cited from earlier work
[3] = supersaturated aqueous solutions
Excerpt: Such species, when subjected to a DC electric field, will tend to migrate toward the electrode with the opposite charge, effectively increasing the supersaturation near the electrode, which in itself can be responsible for inducing nucleation.

[4] = room temperature, approximately 20° C., water; cited from earlier work
[5] = Description: as §1, §2
Towler, C. S. et al., Journal of the American Chemical Society, Vol. 126, pp. 13347-13353 (2004).

Compound: C[C@H](N)C(=O)O [L-alanine]
- timescale on which macroscopic crystals form [1]: minutes

Compound: NCC(=O)O [glycine]
- isoelectric point (pH) [2]: 6.0
- pH of aqueous glycine solutions exposed to DC fields [3]: 6.4-6.5
- percent of the exposed solutions that nucleated within the 10-minute exposure time ([1]; 1.85 SS, after 16 days aging): 24%
- percent of the exposed solutions that nucleated within the 10-minute exposure time ([1]; 1.9-2.0 SS, after 14 days aging): 33%
- percent of the exposed solutions that nucleated within the 10-minute exposure time ([1]; 1.9-2.0 SS, after 36 days aging): 40%
- % samples mixed α + γ ([1]; SS 1.85, DC field): 0%
- % samples pure α ([1]; SS 1.85, DC field): 50%
- % samples pure γ ([1]; SS 1.85, DC field): 50%
- % samples mixed α + γ ([1]; SS 1.9–2.0, DC field): 0%
- % samples pure α ([1]; SS 1.9–2.0, DC field): 0%
- % samples pure γ ([1]; SS 1.9–2.0, DC field): 100%
- time until crystallization observed ([1]; electric field strength 600,000 V/m): 30 to 90 min
- induction of nucleation by field exposure ([1]; field of 400,000 V/m, aged solutions): not sufficient to induce nucleation
- timescale on which macroscopic crystals form [1]: hours
- saturation concentration csat [4]: 3.0 molal
- Spontaneous nucleation rate for a ten-minute time window ([5]; 1.85 SS, no field): 0.02%
- % samples mixed α + γ ([5]; SS 1.85, Spontaneous): 0%
- % samples pure α ([5]; SS 1.85, Spontaneous): 86%
- % samples pure γ ([5]; SS 1.85, Spontaneous): 14%
- % samples mixed α + γ ([5]; SS 1.9–2.0, Spontaneous): 27%
- % samples pure α ([5]; SS 1.9–2.0, Spontaneous): 13%
- % samples pure γ ([5]; SS 1.9–2.0, Spontaneous): 60%

— patent US7879115B2, “Method for using a static electric field to induce crystallization and to control crystal form” (Intellectual Ventures Holding 19, LLC, priority 2004, dated 2011)
